Laboratory results published in PubChem BioAssay (NCI).
“And” between values parts separate entries of the source, which are not always exact repeats. Equal values may be shown once.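 Growth conditions: 96-well plates. Treatment: test compound, 48 hours, 5 concentrations. Analysis: linear interpolation between bracketing concentrations; unreached endpoints set to highest concentration. At the GI50, growth is halved. TGI denotes the concentration required for complete inhibition of growth.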

Legend:
Experiment in all cases: NCI tumour cell line growth inhibition, 48 h
786-0 renal = tested on: 786-0 renal
A498 renal = tested on: A498 renal
A549 NSCLC = tested on: A549 NSCLC
ACHN renal = tested on: ACHN renal
BT-549 breast = tested on: BT-549 breast
CAKI-1 renal = tested on: CAKI-1 renal
CCRF-CEM leukemia = tested on: CCRF-CEM leukemia
COLO 205 colon = tested on: COLO 205 colon
DU-145 prostate = tested on: DU-145 prostate
EKVX NSCLC = tested on: EKVX NSCLC
HCC-2998 colon = tested on: HCC-2998 colon
HCT-116 colon = tested on: HCT-116 colon
HCT-15 colon = tested on: HCT-15 colon
HL-60(TB) leukemia = tested on: HL-60(TB) leukemia
HOP-62 NSCLC = tested on: HOP-62 NSCLC
HOP-92 NSCLC = tested on: HOP-92 NSCLC
HS 578T breast = tested on: HS 578T breast
HT29 colon = tested on: HT29 colon
IGROV1 ovarian = tested on: IGROV1 ovarian
K-562 leukemia = tested on: K-562 leukemia
KM12 colon = tested on: KM12 colon
LOX IMVI melanoma = tested on: LOX IMVI melanoma
M14 melanoma = tested on: M14 melanoma
MALME-3M melanoma = tested on: MALME-3M melanoma
MCF7 breast = tested on: MCF7 breast
MDA-MB-231 breast = tested on: MDA-MB-231 breast
MDA-MB-435 = tested on: MDA-MB-435
MDA-MB-468 breast = tested on: MDA-MB-468 breast
MOLT-4 leukemia = tested on: MOLT-4 leukemia
NCI-H226 lung = tested on: NCI-H226 lung
NCI-H23 lung = tested on: NCI-H23 lung
NCI-H460 lung = tested on: NCI-H460 lung
NCI-H522 lung = tested on: NCI-H522 lung
NCI/ADR-RES ovarian = tested on: NCI/ADR-RES ovarian
OVCAR-3 ovarian = tested on: OVCAR-3 ovarian
OVCAR-4 ovarian = tested on: OVCAR-4 ovarian
OVCAR-5 ovarian = tested on: OVCAR-5 ovarian
OVCAR-8 ovarian = tested on: OVCAR-8 ovarian
PC-3 prostate = tested on: PC-3 prostate
RPMI-8226 leukemia = tested on: RPMI-8226 leukemia
RXF 393 renal = tested on: RXF 393 renal
SF-268 CNS = tested on: SF-268 CNS
SF-295 CNS = tested on: SF-295 CNS
SF-539 CNS = tested on: SF-539 CNS
SK-MEL-2 melanoma = tested on: SK-MEL-2 melanoma
SK-MEL-28 melanoma = tested on: SK-MEL-28 melanoma
SK-MEL-5 melanoma = tested on: SK-MEL-5 melanoma
SK-OV-3 ovarian = tested on: SK-OV-3 ovarian
SN12C renal = tested on: SN12C renal
SNB-19 CNS = tested on: SNB-19 CNS
SNB-75 CNS = tested on: SNB-75 CNS
SR leukemia = tested on: SR leukemia
SW-620 colon = tested on: SW-620 colon
T-47D breast = tested on: T-47D breast
TK-10 renal = tested on: TK-10 renal
U251 CNS = tested on: U251 CNS
UACC-257 melanoma = tested on: UACC-257 melanoma
UACC-62 melanoma = tested on: UACC-62 melanoma
UO-31 renal = tested on: UO-31 renal

O=C(c1cc2cc(OCCCN3CCC3)ccc2[nH]1)N1C[C@@H](CCl)c2c1cc(OCc1ccccc1)c1ccccc21
GI50 (786-0 renal): 0.293 µM and 0.266 µM
TGI (786-0 renal): 0.913 µM and 1.71 µM
GI50 (A498 renal): 0.235 µM
TGI (A498 renal): 0.633 µM
GI50 (A549 NSCLC): 0.157 µM and 0.161 µM
TGI (A549 NSCLC): 0.626 µM and 2.54 µM
GI50 (ACHN renal): 0.0785 µM and 0.0346 µM
TGI (ACHN renal): 0.248 µM and 0.0967 µM
GI50 (BT-549 breast): 0.384 µM and 0.53 µM
TGI (BT-549 breast): 1.72 µM and 2.19 µM
GI50 (CAKI-1 renal): 0.289 µM and 0.193 µM
TGI (CAKI-1 renal): 1.5 µM and 1.68 µM
GI50 (CCRF-CEM leukemia): 0.845 µM and 0.408 µM
TGI (CCRF-CEM leukemia): 7.75 µM and 17.5 µM
GI50 (COLO 205 colon): 0.629 µM and 0.28 µM
TGI (COLO 205 colon): 1.99 µM and 0.644 µM
GI50 (DU-145 prostate): 0.254 µM and 0.082 µM
TGI (DU-145 prostate): 1.25 µM and 2.92 µM
GI50 (EKVX NSCLC): 0.271 µM and 0.371 µM
TGI (EKVX NSCLC): 1.37 µM and 0.956 µM
GI50 (HCC-2998 colon): 0.255 µM and 0.319 µM
TGI (HCC-2998 colon): 1.23 µM and 0.66 µM
GI50 (HCT-116 colon): 0.147 µM and 0.637 µM
TGI (HCT-116 colon): 0.443 µM and 2.46 µM
GI50 (HCT-15 colon): 0.171 µM and 0.134 µM
TGI (HCT-15 colon): 0.838 µM and 0.787 µM
GI50 (HL-60(TB) leukemia): 1.22 µM and 0.442 µM
TGI (HL-60(TB) leukemia): 3.56 µM and 4.05 µM
GI50 (HOP-62 NSCLC): 0.214 µM and 0.139 µM
TGI (HOP-62 NSCLC): 0.694 µM and 0.647 µM
GI50 (HOP-92 NSCLC): 1.16 µM and 0.504 µM
TGI (HOP-92 NSCLC): 3.28 µM and 1.83 µM
GI50 (HS 578T breast): 1.25 µM and 0.746 µM
TGI (HS 578T breast): 3.98 µM and 5.99 µM
GI50 (HT29 colon): 0.285 µM and 0.273 µM
TGI (HT29 colon): 1.35 µM and 2 µM
GI50 (IGROV1 ovarian): 0.31 µM and 0.189 µM
TGI (IGROV1 ovarian): 1.47 µM and 1.33 µM
GI50 (K-562 leukemia): 0.302 µM and 0.251 µM
TGI (K-562 leukemia): 19.8 µM
GI50 (KM12 colon): 0.731 µM and 0.813 µM
TGI (KM12 colon): 2.22 µM and 10.1 µM
GI50 (LOX IMVI melanoma): 0.132 µM and 0.0564 µM
TGI (LOX IMVI melanoma): 0.427 µM and 0.451 µM
GI50 (M14 melanoma): 0.283 µM and 0.212 µM
TGI (M14 melanoma): 1.21 µM and 0.653 µM
GI50 (MALME-3M melanoma): 0.481 µM and 0.276 µM
TGI (MALME-3M melanoma): 1.79 µM and 0.557 µM
GI50 (MCF7 breast): 0.0105 µM and 0.00322 µM
TGI (MCF7 breast): 0.324 µM and 0.851 µM
GI50 (MDA-MB-231 breast): 0.691 µM and 0.544 µM
TGI (MDA-MB-231 breast): 2.1 µM and 1.36 µM
GI50 (MDA-MB-435): 1.05 µM and 0.331 µM
TGI (MDA-MB-435): 2.27 µM and 0.739 µM
GI50 (MDA-MB-468 breast): 0.0438 µM
TGI (MDA-MB-468 breast): 0.13 µM
GI50 (MOLT-4 leukemia): 0.339 µM and 0.272 µM
TGI (MOLT-4 leukemia): 4.56 µM and 3.87 µM
GI50 (NCI-H226 lung): 1.21 µM and 0.211 µM
TGI (NCI-H226 lung): 4.34 µM and 0.631 µM
GI50 (NCI-H23 lung): 0.186 µM and 0.073 µM
TGI (NCI-H23 lung): 0.619 µM and 0.318 µM
GI50 (NCI-H460 lung): 0.121 µM and 0.0171 µM
TGI (NCI-H460 lung): 0.469 µM and 1.12 µM
GI50 (NCI-H522 lung): 1.23 µM and 0.384 µM
TGI (NCI-H522 lung): 2.87 µM and 0.929 µM
GI50 (NCI/ADR-RES ovarian): 0.252 µM
TGI (NCI/ADR-RES ovarian): 1.4 µM
GI50 (OVCAR-3 ovarian): 1.13 µM and 0.497 µM
TGI (OVCAR-3 ovarian): 2.62 µM and 1.61 µM
GI50 (OVCAR-4 ovarian): 1.13 µM and 0.536 µM
TGI (OVCAR-4 ovarian): 3.01 µM and 1.69 µM
GI50 (OVCAR-5 ovarian): 0.302 µM and 0.345 µM
TGI (OVCAR-5 ovarian): 1.04 µM and 1.06 µM
GI50 (OVCAR-8 ovarian): 0.274 µM and 0.242 µM
TGI (OVCAR-8 ovarian): 1.44 µM and 1.53 µM
GI50 (PC-3 prostate): 0.294 µM and 0.367 µM
TGI (PC-3 prostate): 2.63 µM and 4.6 µM
GI50 (RPMI-8226 leukemia): 0.941 µM and 0.496 µM
TGI (RPMI-8226 leukemia): 9.53 µM and 9.5 µM
GI50 (RXF 393 renal): 0.362 µM and 0.234 µM
TGI (RXF 393 renal): 1.63 µM and 0.509 µM
GI50 (SF-268 CNS): 0.437 µM and 0.332 µM
TGI (SF-268 CNS): 2.42 µM and 2.04 µM
GI50 (SF-295 CNS): 0.154 µM and 0.0461 µM
TGI (SF-295 CNS): 0.447 µM and 0.23 µM
GI50 (SF-539 CNS): 0.225 µM and 0.295 µM
TGI (SF-539 CNS): 1 µM and 0.663 µM
GI50 (SK-MEL-2 melanoma): 1.09 µM and 0.374 µM
TGI (SK-MEL-2 melanoma): 2.32 µM and 0.659 µM
GI50 (SK-MEL-28 melanoma): 0.507 µM and 0.329 µM
TGI (SK-MEL-28 melanoma): 1.8 µM and 0.749 µM
GI50 (SK-MEL-5 melanoma): 0.322 µM and 0.272 µM
TGI (SK-MEL-5 melanoma): 1.3 µM and 0.537 µM
GI50 (SK-OV-3 ovarian): 0.401 µM and 0.453 µM
TGI (SK-OV-3 ovarian): 1.64 µM and 1.72 µM
GI50 (SN12C renal): 0.345 µM and 0.357 µM
TGI (SN12C renal): 1.5 µM and 2.11 µM
GI50 (SNB-19 CNS): 0.687 µM and 0.333 µM
TGI (SNB-19 CNS): 2.33 µM and 2.4 µM
GI50 (SNB-75 CNS): 1.02 µM
TGI (SNB-75 CNS): 2.21 µM
GI50 (SR leukemia): 0.0974 µM and 0.0439 µM
TGI (SR leukemia): 5.01 µM
GI50 (SW-620 colon): 0.234 µM and 0.258 µM
TGI (SW-620 colon): 1.56 µM and 1.28 µM
GI50 (T-47D breast): 0.375 µM and 0.202 µM
TGI (T-47D breast): 1.69 µM and 1.04 µM
GI50 (TK-10 renal): 1.53 µM and 0.562 µM
TGI (TK-10 renal): 3 µM and 1.42 µM
GI50 (U251 CNS): 0.247 µM and 0.0612 µM
TGI (U251 CNS): 1.03 µM and 2.39 µM
GI50 (UACC-257 melanoma): 0.792 µM
TGI (UACC-257 melanoma): 2.3 µM
GI50 (UACC-62 melanoma): 0.145 µM and 0.062 µM
TGI (UACC-62 melanoma): 0.481 µM and 0.325 µM
GI50 (UO-31 renal): 0.171 µM and 0.264 µM
TGI (UO-31 renal): 0.449 µM and 0.681 µM
